From US8580823B2, “Piperidine renin inhibitors” (Vitae Pharmaceuticals, Inc., priority 2006, dated 2013)

Columns and labels:
[1] = test system: double transgenic rats engineered to express human renin and human angiotensinogen; assay: In vivo blood pressure by telemetry in double transgenic rats; set-up: species or system rat; details: 6-week-old dTGRs, oral, 4 consecutive days, dosage of 3-10 mg/kg
Method: Double Transgenic Rats: The efficacy of the renin inhibitors can also be evaluated in vivo in double transgenic rats engineered to express human renin and human angiotensinogen (Bohlender J, Fukamizu A, Lippoldt A, Nomura T, Dietz R, Menard J, Murakami K, Luft F C, Ganten D. High human renin hypertension in transgenic rats. Hypertension 1997, 29, 428-434).
Experiments were conducted in 6-week-old double transgenic rats (dTGRs). The model has been described in detail earlier. […] The human angiotensinogen construct made up the entire human angiotensinogen gene (5 exons and 4 introns), with 1.3 kB of 5′-flanking and 2.4 kB of 3′-flanking sequences. The rats were purchased from RCC Ltd (Füllinsdorf, Switzerland). Radio telemetry transmitters were surgically implanted at 4 weeks of age. The telemetry system provided 24-h recordings of systolic, mean, diastolic arterial pressure (SAP, MAP, DAP, respectively) and heart rate (HR). Beginning on day 42, animals were transferred to telemetry cages. A 24 h telemetry reading was obtained. Rats were then dosed orally on the following 4 consecutive days (days 43-46). The rats were monitored continuously and allowed free access to standard 0.3%-sodium rat chow and drinking water.

[2] = molecular target: T1, trypsin-activated recombinant human renin (Homo sapiens, UniProt P00797); assay: In vitro renin inhibition, fluorescence of internally quenched peptide substrate; type: biochemical; details: fluorogenic peptide substrate, pH 7.0, rt
T1 sequence (P00797 67-406): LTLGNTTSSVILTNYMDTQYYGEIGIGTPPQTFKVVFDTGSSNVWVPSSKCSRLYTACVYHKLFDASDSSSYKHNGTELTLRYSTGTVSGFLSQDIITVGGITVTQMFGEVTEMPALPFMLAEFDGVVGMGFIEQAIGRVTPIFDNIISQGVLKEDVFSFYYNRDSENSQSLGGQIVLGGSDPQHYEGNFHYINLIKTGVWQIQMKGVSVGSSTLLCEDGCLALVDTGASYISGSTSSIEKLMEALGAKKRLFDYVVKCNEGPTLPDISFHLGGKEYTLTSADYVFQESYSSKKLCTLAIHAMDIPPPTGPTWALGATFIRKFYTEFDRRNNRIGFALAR
Method: The sequence of this peptide corresponds to the sequence of human angiotensinogen. The following test protocol was used. All reactions were carried out in a flat bottom white opaque microtiter plate. A 4 μL aliquot of 400 μM renin substrate (DABCYL-γ-[…]) in 192 μl, assay buffer (50 mM BES, 150 mM NaCl, 0.25 mg/mL bovine serum albumin, pH7.0) was added to 4 μl, of test compound in DMSO at various concentrations ranging from 10 μM to 1 nM final concentrations. Next, 100 μL of trypsin-activated recombinant human renin (final enzyme concentration of 0.2-2 nM) in assay buffer was added, and the solution was mixed by pipetting. The increase in fluorescence at 495 nm (excitation at 340 nm) was measured for 60-360 minutes at rt using a Perkin-Elmer Fusion microplate reader. The slope of a linear portion of the plot of fluorescence-increase as a function of time was then determined, and the rate is used for calculating percent inhibition in relation to uninhibited control. […] (Wang G. T. et al. Anal. Biochem. 1993, 210, 351; Nakamura, N. et al. J. Biochem. (Tokyo) 1991, 109, 741; Murakami, K. et al. Anal Biochem. 1981, 110, 232).

[3] = molecular target: T2, plasma renin activity (PRA) (Homo sapiens, UniProt P00797); assay: In vitro plasma renin activity (PRA) in human plasma, angiotensin I radioimmunoassay; type: biochemical; details: IC50 in pooled human plasma, 37° C., 90 min
T2 construct: pooled mixed-gender human plasma stabilized with EDTA; from tissue; host or cells: pooled mixed-gender human plasma (EDTA)
T2 sequence (P00797 67-406): T1 sequence (P00797 67-406)
Method: Incubations mixtures contained in the final volume of 250 μL 95.5 mM N,N-bis(2-hydroxyethyl)-2-aminoethanesulfonic acid, pH 7.0, 8 mM EDTA, 0.1 mM neomycin sulfate, 1 mg/mL sodium azide, 1 mM phenylmethanesulfonyl fluoride, 2% DMSO and 87.3% of pooled mixed-gender human plasma stabilized with EDTA. For plasma batches with low PRA (less than 1 ng/ml/hr) ˜2 pM of recombinant human renin was added to achieve PRA of 3-4 ng/ml/hr. The cleavage of endogenous angiotensinogen in plasma was carried out at 37° C. for 90 min and the product angiotensin I was measured by competitive radioimmunoassay using DiaSorin PRA kit.

Compound | IC50 [2] [nM] | IC50 [3] [nM] | effect in lowering blood pressures (mean arterial blood pressure, FIG. 2) [1]
CN[C@H](CNC(=O)N1CCC[C@@H]([C@@H](OCCNC(=O)OC)c2cccc(Cl)c2)C1)C[C@H]1CCCOC1 [Compound 7, methyl 2-((R)-(3-chlorophenyl)((R)-1-((S)-2-(methylamino)-3-((R)-tetrahydro-2H-pyran-3-yl)propylcarbamoyl)piperidin-3-yl)methoxy)ethylcarbamate] | – | – | significant effect in lowering blood pressures
CN[C@H](CNC(=O)N1CCC[C@@H]([C@H](OCCNC(=O)OC)c2cc(Cl)ccc2C)C1)C[C@H]1CCCOC1 [Compound 11, methyl 2-((S)-(5-chloro-2-methylphenyl)((R)-1-((S)-2-(methylamino)-3-((R)-tetrahydro-2H-pyran-3-yl)propylcarbamoyl)piperidin-3-yl)methoxy)ethylcarbamate] | < 10 | < 10 | –
CCN[C@H](CNC(=O)N1CCC[C@@H]([C@@H](OCCNC(=O)OC)c2cc(Cl)ccc2C)C1)C[C@H]1CCCOC1 [Compound 12, methyl 2-((R)-(5-chloro-2-methylphenyl)((R)-1-((S)-2-(ethylamino)-3-((R)-tetrahydro-2H-pyran-3-yl)propylcarbamoyl)piperidin-3-yl)methoxy)ethylcarbamate] | < 10 | – | –

Now from value to compound, other results behind:

IC50 [2] [nM] | IC50 [3] [nM] | Compound | effect in lowering blood pressures (mean arterial blood pressure, FIG. 2) [1]
< 1 | < 10 | CN[C@H](CNC(=O)N1CCC[C@@H]([C@@H](OCCNC(=O)OC)c2cc(F)cc(Cl)c2)C1)C[C@H]1CCCOC1 [Compound 9, methyl 2-((R)-(3-chloro-5-fluorophenyl)((R)-1-((S)-2-(methylamino)-3-((R)-tetrahydro-2H-pyran-3-yl)propylcarbamoyl)piperidin-3-yl)methoxy)ethylcarbamate] | –
< 10 | < 10 | CN[C@H](CNC(=O)N1CCC[C@@H]([C@@H](OCCNC(=O)OC)c2cc(F)cc(F)c2)C1)C[C@H]1CCCOC1 [Compound 10, methyl 2-((R)-(3,5-difluorophenyl)((R)-1-((S)-2-(methylamino)-3-((R)-tetrahydro-2H-pyran-3-yl)propylcarbamoyl)piperidin-3-yl)methoxy)ethylcarbamate] | –
